According to US20230398130A1, “METHODS AND COMPOSITIONS FOR DIFFERENTIATING STEM CELLS” (Massachusetts Institute of Technology, priority 2020, published 2023):

How the values were obtained:
[1] = system: ISC-enriched organoids; test: Primary screen, 384-well 2.5-D organoid differentiation (ENR+CD, 6 days): carbachol-induced lysozyme secretion (LYZ.S); format: cell-based, murine; conditions: primary screen; for Dose.FC.LYZ.S: FC vs plate median; for Z.LYZ.S: standard z score; for SSMD.LYZ.S: strictly standardized mean difference
Excerpt: (§1) High-throughput screening.

[2] = system: ISC-enriched organoids; test: Primary screen, 384-well 2.5-D organoid differentiation (ENR+CD, 6 days, Target Selective Inhibitor Library, vs whole-plate median): ATP (CellTiter-Glo 3D, CTG); conditions: for Dose.FC.CTG: FC vs plate median; for SSMD.CTG: strictly standardized mean difference
[3] = system: ISC-enriched organoids; test: Primary screen, 384-well 2.5-D organoid differentiation (ENR+CD, 6 days): basal lysozyme secretion (LYZ.NS); format: cell-based, murine; conditions: primary screen; for Dose.FC.LYZ.NS: FC vs plate median; for SSMD.LYZ.NS: strictly standardized mean difference
Excerpt: as §1

[4] = 1st of the 4 dose lines of the treatment (dose not given)
[5] = 2nd of the 4 dose lines of the treatment (dose not given)
[6] = 3rd of the 4 dose lines of the treatment (dose not given)
[7] = 4th of the 4 dose lines of the treatment (dose not given)
[8] = Dose 0.08 uM, primary screen, standard z score
[9] = Dose 0.40 uM, primary screen, standard z score
[10] = Dose 2.00 uM, primary screen, standard z score
[11] = Dose 10.00 uM, primary screen, standard z score
[12] = primary screen, 1st of the 4 dose lines of the treatment (dose not given)
[13] = primary screen, 2nd of the 4 dose lines of the treatment (dose not given)
[14] = primary screen, 3rd of the 4 dose lines of the treatment (dose not given)
[15] = primary screen, 4th of the 4 dose lines of the treatment (dose not given)
[16] = Dose 10.00 uM, standard z score

## CCN1CCN(c2ccc(Nc3cc(N(C)C(=O)Nc4c(Cl)c(OC)cc(OC)c4Cl)ncn3)cc2)CC1 [BGJ398 (NVP-BGJ398)]
[1]; dose 0.08 uM, ENR+CD 6 days
  Dose.FC.LYZ.S: −0.036 log 2 fold change
[1]; dose 0.40 uM, ENR+CD 6 days
  Dose.FC.LYZ.S: 0.002 log 2 fold change
[1]; dose 2.00 uM, ENR+CD 6 days
  Dose.FC.LYZ.S: −0.062 log 2 fold change
[1]; dose 10.00 uM, ENR+CD 6 days
  Dose.FC.LYZ.S: −0.350 log 2 fold change
[2]; primary screen, dose 0.08 uM, ENR+CD 6 days
  Dose.FC.CTG: −0.054 log 2 fold change
[2]; primary screen, dose 0.08 uM, standard z score of FC
  Z.CTG: −0.128
[2]; primary screen, dose 0.40 uM, ENR+CD 6 days
  Dose.FC.CTG: 0.026 log 2 fold change
[2]; primary screen, dose 0.40 uM, standard z score of FC
  Z.CTG: 0.063
[2]; primary screen, dose 2.00 uM, ENR+CD 6 days
  Dose.FC.CTG: −0.185 log 2 fold change
[2]; primary screen, dose 2.00 uM, standard z score of FC
  Z.CTG: −0.442
[2]; primary screen, dose 10.00 uM, ENR+CD 6 days
  Dose.FC.CTG: −1.500 log 2 fold change
[2]; primary screen, dose 10.00 uM, standard z score of FC
  Z.CTG: −3.583
[3]; dose 0.08 uM, ENR+CD 6 days
  Dose.FC.LYZ.NS: −0.002 log 2 fold change
[3]; dose 0.08 uM, standard z score of FC
  Z.LYZ.NS: −0.017
[3]; dose 0.40 uM, ENR+CD 6 days
  Dose.FC.LYZ.NS: −0.060 log 2 fold change
[3]; dose 0.40 uM, standard z score of FC
  Z.LYZ.NS: −0.520
[3]; dose 2.00 uM, ENR+CD 6 days
  Dose.FC.LYZ.NS: −0.052 log 2 fold change
[3]; dose 2.00 uM, standard z score of FC
  Z.LYZ.NS: −0.450
[3]; dose 10.00 uM, ENR+CD 6 days
  Dose.FC.LYZ.NS: −0.269 log 2 fold change
[3]; dose 10.00 uM, standard z score of FC
  Z.LYZ.NS: −2.345

## O=C1[C@H](Cc2ccc(O)cc2)N2C(=O)CCN(C(=O)NCc3ccccc3)[C@H]2CN1Cc1cccc2ccccc12 [ICG-001]
[1]; Dose 0.08 uM
  Dose.FC.LYZ.S: 0.163 log 2 fold change
[1]; Dose 0.40 uM
  Dose.FC.LYZ.S: 0.204 log 2 fold change
[1]; Dose 2.00 uM
  Dose.FC.LYZ.S: 0.017 log 2 fold change
[1]; Dose 10.00 uM
  Dose.FC.LYZ.S: −0.124 log 2 fold change
[1]; [4]
  Z.LYZ.S: 1.054
  SSMD.LYZ.S: 0.711
[1]; [5]
  Z.LYZ.S: 1.318
  SSMD.LYZ.S: 0.796
[1]; [6]
  Z.LYZ.S: 0.109
  SSMD.LYZ.S: 0.122
[1]; [7]
  Z.LYZ.S: −0.802
  SSMD.LYZ.S: −0.824
[2]; Dose 0.08 uM, primary screen
  Dose.FC.CTG: 0.104 log 2 fold change
[2]; [8]
  Z.CTG: 0.249
[2]; Dose 0.40 uM, primary screen
  Dose.FC.CTG: 0.104 log 2 fold change
[2]; [9]
  Z.CTG: 0.248
[2]; Dose 2.00 uM, primary screen
  Dose.FC.CTG: 0.143 log 2 fold change
[2]; [10]
  Z.CTG: 0.343
[2]; Dose 10.00 uM, primary screen
  Dose.FC.CTG: −0.416 log 2 fold change
[2]; [11]
  Z.CTG: −0.993
[2]; [12]
  SSMD.CTG: 0.298
[2]; [13]
  SSMD.CTG: 0.360
[2]; [14]
  SSMD.CTG: 0.530
[2]; [15]
  SSMD.CTG: −0.731
[3]; Dose 0.08 uM
  Dose.FC.LYZ.NS: 0.037 log 2 fold change
[3]; Dose 0.08 uM, standard z score
  Z.LYZ.NS: 0.324
[3]; Dose 0.40 uM
  Dose.FC.LYZ.NS: 0.037 log 2 fold change
[3]; Dose 0.40 uM, standard z score
  Z.LYZ.NS: 0.321
[3]; Dose 2.00 uM
  Dose.FC.LYZ.NS: 0.045 log 2 fold change
[3]; Dose 2.00 uM, standard z score
  Z.LYZ.NS: 0.396
[3]; Dose 10.00 uM
  Dose.FC.LYZ.NS: −0.125 log 2 fold change
[3]; [16]
  Z.LYZ.NS: −1.093
[3]; [4]
  SSMD.LYZ.NS: 0.280
[3]; [5]
  SSMD.LYZ.NS: 0.339
[3]; [6]
  SSMD.LYZ.NS: 0.413
[3]; [7]
  SSMD.LYZ.NS: −1.162

## Cc1c(C(=O)Nc2ccc(N3C[C@@H](C)O[C@@H](C)C3)nc2)cccc1-c1ccc(OC(F)(F)F)cc1 [LDE225 (NVP-LDE225, Erismodegib)]
[1]; Dose 0.08 uM
  Dose.FC.LYZ.S: 0.095 log 2 fold change
[1]; Dose 0.40 uM
  Dose.FC.LYZ.S: 0.074 log 2 fold change
[1]; Dose 2.00 uM
  Dose.FC.LYZ.S: 0.002 log 2 fold change
[1]; Dose 10.00 uM
  Dose.FC.LYZ.S: 0.006 log 2 fold change
[1]; [4]
  Z.LYZ.S: 0.613
  SSMD.LYZ.S: 0.704
[1]; [5]
  Z.LYZ.S: 0.481
  SSMD.LYZ.S: 0.415
[1]; [6]
  Z.LYZ.S: 0.013
  SSMD.LYZ.S: 0.013
[1]; [7]
  Z.LYZ.S: 0.038
  SSMD.LYZ.S: 0.025
[2]; Dose 0.08 uM, primary screen
  Dose.FC.CTG: 0.107 log 2 fold change
[2]; [8]
  Z.CTG: 0.255
[2]; Dose 0.40 uM, primary screen
  Dose.FC.CTG: 0.067 log 2 fold change
[2]; [9]
  Z.CTG: 0.159
[2]; Dose 2.00 uM, primary screen
  Dose.FC.CTG: 0.229 log 2 fold change
[2]; [10]
  Z.CTG: 0.546
[2]; Dose 10.00 uM, primary screen
  Dose.FC.CTG: −0.001 log 2 fold change
[2]; [11]
  Z.CTG: −0.002
[2]; [12]
  SSMD.CTG: 0.313
[2]; [13]
  SSMD.CTG: 0.163
[2]; [14]
  SSMD.CTG: 0.681
[2]; [15]
  SSMD.CTG: −0.001
[3]; Dose 0.08 uM
  Dose.FC.LYZ.NS: 0.085 log 2 fold change
[3]; Dose 0.08 uM, standard z score
  Z.LYZ.NS: 0.739
[3]; Dose 0.40 uM
  Dose.FC.LYZ.NS: 0.101 log 2 fold change
[3]; Dose 0.40 uM, standard z score
  Z.LYZ.NS: 0.881
[3]; Dose 2.00 uM
  Dose.FC.LYZ.NS: 0.011 log 2 fold change
[3]; Dose 2.00 uM, standard z score
  Z.LYZ.NS: 0.094
[3]; Dose 10.00 uM
  Dose.FC.LYZ.NS: 0.049 log 2 fold change
[3]; [16]
  Z.LYZ.NS: 0.426
[3]; [4]
  SSMD.LYZ.NS: 0.869
[3]; [5]
  SSMD.LYZ.NS: 0.731
[3]; [6]
  SSMD.LYZ.NS: 0.074
[3]; [7]
  SSMD.LYZ.NS: 0.268

## CN(Cc1cnc2nc(N)nc(N)c2n1)c1ccc(C(=O)N[C@@H](CCC(=O)O)C(=O)O)cc1 [Methotrexate]
[1]; [4]
  Z.LYZ.S: −1.029
  SSMD.LYZ.S: −0.943
[1]; [5]
  Z.LYZ.S: −0.831
  SSMD.LYZ.S: −0.627
[1]; [6]
  Z.LYZ.S: −1.143
  SSMD.LYZ.S: −0.866
[1]; [7]
  Z.LYZ.S: −1.007
  SSMD.LYZ.S: −0.718
[2]; [8]
  Z.CTG: −1.469
[2]; [9]
  Z.CTG: −1.724
[2]; [10]
  Z.CTG: −1.674
[2]; Dose 10.00 uM, standard z score of FC
  Z.CTG: −1.534
[2]; [12]
  SSMD.CTG: −1.489
[2]; [13]
  SSMD.CTG: −1.028
[2]; [14]
  SSMD.CTG: −1.982
[2]; [15]
  SSMD.CTG: −1.176
[3]; [4]
  SSMD.LYZ.NS: −0.745
[3]; [5]
  SSMD.LYZ.NS: −0.349
[3]; [6]
  SSMD.LYZ.NS: −1.130
[3]; [7]
  SSMD.LYZ.NS: −0.527
